Our source for the IC50 values is patent US20160060260A1, “BROMODOMAIN INHIBITORS FOR TREATING DISEASE” (Board of Regents, The University of Texas System, priority 2014, published 2016).

As usually defined, the IC50 is the concentration at which inhibition is half-maximal.

Structures are written as SMILES.

This experiment deals with T1, Recombinant human His-tagged Trim24-PHD-bromodomain (Homo sapiens, UniProt O15164).
T1 construct: Recombinant human His-tagged Trim24-PHD-bromodomain (produced in-house); made in house
T1 sequence (O15164 824-1006 limits assumed): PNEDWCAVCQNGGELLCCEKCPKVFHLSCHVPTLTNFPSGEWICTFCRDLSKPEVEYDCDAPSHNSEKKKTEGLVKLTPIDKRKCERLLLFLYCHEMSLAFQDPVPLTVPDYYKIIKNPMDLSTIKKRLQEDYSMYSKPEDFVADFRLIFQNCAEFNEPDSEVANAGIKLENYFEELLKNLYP
Put plainly: Trim24 AlphaScreen Assay. The format is binding. The settings on record: 5 nM Trim24 protein, 15 nM biotinylated H3K23ac (1-33aa) peptide. The essentials:
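AlphaScreen read-out after 2 h with streptavidin donor and Ni-chelate acceptor beads at 10 ug/mL each, following 1 h room-temperature incubation of compound, His-tagged PHD-bromodomain protein and biotin-H3K23ac (1-33aa) peptide in Hepes pH 7.5 buffer with NaCl and Triton X-100. Signals normalised between no-compound and no-protein wells; IC50 from four-parameter logistic curves.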
On the technique in general: Alpha assays give light when donor and acceptor beads are brought close together.
`CCCOc1cc(OCCCOC)cc(Oc2cc3c(cc2NS(=O)(=O)c2cccc(C(C)C)c2)n(C)c(=O)n3C)c1` [Example 164, 3-isopropyl-N-(6-(3-(3-methoxypropoxy)-5-propoxyphenoxy)-1,3-dimethyl-2-oxo-2,3-dihydro-1H-benzo[d]imidazol-5-yl)benzenesulfonamide]: the IC50 was in the range of 0.1 to 1 µM.
As to `CCCOc1cc(OCCCOC)cc(Oc2cc3c(cc2NS(=O)(=O)c2cccc(C#N)c2)n(C)c(=O)n3C)c1` [Example 165, 3-cyano-N-(6-(3-(3-methoxypropoxy)-5-propoxyphenoxy)-1,3-dimethyl-2-oxo-2,3-dihydro-1H-benzo[d]imidazol-5-yl)benzenesulfonamide], the IC50 was 0.01 to 0.1 µM.
Take `CCCOc1cc(OCCCOC)cc(Oc2cc3c(cc2NS(=O)(=O)c2cc(OC)cc(OC)c2)n(C)c(=O)n3C)c1` [Example 166, 3,5-dimethoxy-N-(6-(3-(3-methoxypropoxy)-5-propoxyphenoxy)-1,3-dimethyl-2-oxo-2,3-dihydro-1H-benzo[d]imidazol-5-yl)benzenesulfonamide]: the IC50 was 0.1 to 1 µM.
The value for `CCCOc1cc(OCCCOC)cc(Oc2cc3c(cc2NS(=O)(=O)c2ccc(OC(F)F)cc2)n(C)c(=O)n3C)c1` [Example 167, 4-(difluoromethoxy)-N-(6-(3-(3-methoxypropoxy)-5-propoxyphenoxy)-1,3-dimethyl-2-oxo-2,3-dihydro-1H-benzo[d]imidazol-5-yl)benzenesulfonamide] was 0.1 to 1 µM.
Consider `CCCOc1cccc(Oc2cc3c(cc2NS(=O)(=O)c2ccccn2)n(C)c(=O)n3C)c1` [Example 168, N-(1,3-dimethyl-2-oxo-6-(3-propoxyphenoxy)-2,3-dihydro-1H-benzo[d]imidazol-5-yl)pyridine-2-sulfonamide], for which the IC50 was in the range of 0.01 to 0.1 µM.
As to `CCCOc1cccc(Oc2cc3c(cc2NS(=O)(=O)c2cc(OC)cc(OC)c2)n(C)c(=O)n3C)c1` [Example 169, N-(1,3-dimethyl-2-oxo-6-(3-propoxyphenoxy)-2,3-dihydro-1H-benzo[d]imidazol-5-yl)-3,5-dimethoxybenzenesulfonamide], the IC50 lay in the range of 0.1 to 1 µM.
For `CCCOc1cccc(Oc2cc3c(cc2NS(=O)(=O)c2cccc(OC)c2)n(C)c(=O)n3C)c1` [Example 170, N-(1,3-dimethyl-2-oxo-6-(3-propoxyphenoxy)-2,3-dihydro-1H-benzo[d]imidazol-5-yl)-3-methoxybenzenesulfonamide], the IC50 was 0.1 to 1 µM.
For `CCCOc1cccc(Oc2cc3c(cc2NS(=O)(=O)c2ccc(OC)cc2)n(C)c(=O)n3C)c1` [Example 171, N-(1,3-dimethyl-2-oxo-6-(3-propoxyphenoxy)-2,3-dihydro-1H-benzo[d]imidazol-5-yl)-4-methoxybenzenesulfonamide], the IC50 was in the range of 0.1 to 1 µM.
As for `CCCOc1cccc(Oc2cc3c(cc2NS(=O)(=O)c2cccc4c2OCCO4)n(C)c(=O)n3C)c1` [Example 172, N-(1,3-dimethyl-2-oxo-6-(3-propoxyphenoxy)-2,3-dihydro-1H-benzo[d]imidazol-5-yl)-2,3-dihydrobenzo[b][1,4]dioxine-5-sulfonamide], the IC50 fell in the range of 0.1 to 1 µM.
The value for `CCCOc1cccc(Oc2cc3c(cc2NS(=O)(=O)c2cccc(N(C)C)c2)n(C)c(=O)n3C)c1` [Example 173, N-(1,3-dimethyl-2-oxo-6-(3-propoxyphenoxy)-2,3-dihydro-1H-benzo[d]imidazol-5-yl)-3-(dimethylamino)benzenesulfonamide] was 0.1 to 1 µM.
For the compound `CCCOc1cccc(Oc2cc3c(cc2NS(=O)(=O)c2ccc(OC)c(NC(C)=O)c2)n(C)c(=O)n3C)c1` [Example 174, N-(5-(N-(1,3-dimethyl-2-oxo-6-(3-propoxyphenoxy)-2,3-dihydro-1H-benzo[d]imidazol-5-yl)sulfamoyl)-methoxyphenyl)acetamide], the IC50 lay in the range of 0.01 to 0.1 µM.
Take `CCCOc1cc(OCCCOC)cc(Oc2cc3c(cc2NS(=O)(=O)c2cccc4c2OCCO4)n(C)c(=O)n3C)c1` [Example 175, N-(6-(3-(3-methoxypropoxy)-5-propoxyphenoxy)-1,3-dimethyl-2-oxo-2,3-dihydro-1H-benzo[d]imidazol-5-yl)-2,3-dihydrobenzo[b][1,4]dioxine-5-sulfonamide]: the IC50 is 0.1 to 1 µM.
On to `CCCOc1cc(OCCCOC)cc(Oc2cc3c(cc2NS(=O)(=O)c2cccc4[nH]c(=O)c(=O)[nH]c24)n(C)c(=O)n3C)c1` [Example 176, N-(6-(3-(3-methoxypropoxy)-5-propoxyphenoxy)-1,3-dimethyl-2-oxo-2,3-dihydro-1H-benzo[d]imidazol-5-yl)-2,3-dioxo-1,2,3,4-tetrahydroquinoxaline-5-sulfonamide], for which the IC50 was in the range of 0.01 to 0.1 µM.
Take `CCCOc1cc(OCCCOC)cc(Oc2cc3c(cc2NS(=O)(=O)c2ccc(N(C)C)cc2)n(C)c(=O)n3C)c1` [Example 177, 4-(dimethylamino)-N-(6-(3-(3-methoxypropoxy)-5-propoxyphenoxy)-1,3-dimethyl-2-oxo-2,3-dihydro-benzo[d]imidazol-5-yl)benzenesulfonamide]: the IC50 was 0.1 to 1 µM.
Next, `CCCOc1cc(OCCCCCCO)cc(Oc2cc3c(cc2NS(=O)(=O)c2cnn(C)c2C)n(C)c(=O)n3C)c1` [Example 178, N-(6-(3-((6-hydroxyhexyl)oxy)-5-propoxyphenoxy)-1,3-dimethyl-2-oxo-2,3-dihydro-1H-benzo[d]imidazol-5-yl)-1,5-dimethyl-1H-pyrazole-4-sulfonamide]: 0.01 to 0.1 µM.
`CCCOc1cc(OCCCCCCO)cc(Oc2cc3c(cc2NS(=O)(=O)c2ccc(OC)c(OC)c2)n(C)c(=O)n3C)c1` [Example 179, N-(6-(3-((6-hydroxyhexyl)oxy)-5-propoxyphenoxy)-1,3-dimethyl-2-oxo-2,3-dihydro-1H-benzo[d]imidazol-5-yl)-3,4-dimethoxybenzenesulfonamide]: the IC50 was in the range of 0.01 to 0.1 µM.
Take `CCCOc1cc(OCCCCCCO)cc(Oc2cc3c(cc2NS(=O)(=O)c2cccnc2)n(C)c(=O)n3C)c1` [Example 180, N-(6-(3-((6-hydroxyhexyl)oxy)-5-propoxyphenoxy)-1,3-dimethyl-2-oxo-2,3-dihydro-1H-benzo[d]imidazol-5-yl)pyridine-3-sulfonamide]: the IC50 lay within 0.01 to 0.1 µM.
In the case of `CCCOc1cc(OCCCCCCO)cc(Oc2cc3c(cc2NS(=O)(=O)c2cn(C)cn2)n(C)c(=O)n3C)c1` [Example 181, N-(6-(3-((6-hydroxyhexyl)oxy)-5-propoxyphenoxy)-1,3-dimethyl-2-oxo-2,3-dihydro-1H-benzo[d]imidazol-5-yl)-1-methyl-1H-imidazole-4-sulfonamide], the IC50 was in the range of 0.01 to 0.1 µM.
As to `CCCOc1cc(OCCCCCCN)cc(Oc2cc3c(cc2NS(=O)(=O)c2cn(C)c(C)n2)n(C)c(=O)n3C)c1` [Example 182, N-(6-(3-((6-aminohexyl)oxy)-5-propoxyphenoxy)-1,3-dimethyl-2-oxo-2,3-dihydro-1H-benzo[d]imidazol-5-yl)-1,2-dimethyl-1H-imidazole-4-sulfonamide], the IC50 was 0.01 to 0.1 µM.
The value for `CCCOc1cc(OCCCCCCN)cc(Oc2cc3c(cc2NS(=O)(=O)c2cccnc2)n(C)c(=O)n3C)c1` [Example 183, N-(6-(3-((6-aminohexyl)oxy)-5-propoxyphenoxy)-1,3-dimethyl-2-oxo-2,3-dihydro-1H-benzo[d]imidazol-5-yl)pyridine-3-sulfonamide] was 0.001 to 0.01 µM; that for `COc1ccc(S(=O)(=O)Nc2cc3c(cc2Oc2cccc(OCC(F)(F)F)c2)n(C)c(=O)n3C)cc1OC` [Example 184, N-(1,3-dimethyl-2-oxo-6-(3-(2,2,2-trifluoroethoxy)phenoxy)-2,3-dihydro-1H-benzo[d]imidazol-5-yl)-3,4-dimethoxybenzenesulfonamide] was 0.01 to 0.1 µM; that for `CCCOc1cc(OCCCCCCO)cc(Oc2cc3c(cc2NS(=O)(=O)c2cccc(C(=O)OC)c2)n(C)c(=O)n3C)c1` [Example 185, methyl 3-(N-(6-(3-((6-hydroxynhexyl)oxy)-5-propoxyphenoxy)-1,3-dimethyl-2-oxo-2,3-dihydro-1H-benzo[d]imidazol-5-yl)sulfamoyl)benzoate] was 0.1 to 1 µM.
For the compound `CCCOc1cc(OCCCCN)cc(Oc2cc3c(cc2NS(=O)(=O)c2cn(C)cn2)n(C)c(=O)n3C)c1` [Example 186, N-(6-(3-(4-aminobutoxy)-5-propoxyphenoxy)-1,3-dimethyl-2-oxo-2,3-dihydro-1H-benzo[d]imidazol-5-yl)-1-methyl-1H-imidazole-4-sulfonamide], the IC50 is 0.001 to 0.01 µM.
Consider `CCCOc1cc(OCCCCCCN)cc(Oc2cc3c(cc2NS(=O)(=O)c2ccccn2)n(C)c(=O)n3C)c1` [Example 187, N-(6-(3-((6-aminohexyl)oxy)-5-propoxyphenoxy)-1,3-dimethyl-2-oxo-2,3-dihydro-1H-benzo[d]imidazol-5-yl)pyridine-2-sulfonamide], for which the IC50 was 0.01 to 0.1 µM.
The value for `CCCOc1cc(OCCCCCCN(C)C)cc(Oc2cc3c(cc2NS(=O)(=O)c2cn(C)cn2)n(C)c(=O)n3C)c1` [Example 188, N-(6-(3-((6-(dimethylamino)hexyl)oxy)-5-propoxyphenoxy)-1,3-dimethyl-2-oxo-2,3-dihydro-1H-benzo[d]imidazol-5-yl)-1-methyl-1H-imidazole-4-sulfonamide] was 0.01 to 0.1 µM; that for `CCCOc1cc(OCCCCCCN)cc(Oc2cc3c(cc2NS(=O)(=O)c2cnn(C)c2C)n(C)c(=O)n3C)c1` [Example 189, N-(6-(3-((6-aminohexyl)oxy)-5-propoxyphenoxy)-1,3-dimethyl-2-oxo-2,3-dihydro-1H-benzo[d]imidazol-5-yl)-1,5-dimethyl-1H-pyrazole-4-sulfonamide] was 0.001 to 0.01 µM; that for `CCCOc1cc(OCCCCCCN)cc(Oc2cc3c(cc2NS(=O)(=O)c2cccc(C#N)c2)n(C)c(=O)n3C)c1` [Example 190, N-(6-(3-((6-aminohexyl)oxy)-5-propoxyphenoxy)-1,3-dimethyl-2-oxo-2,3-dihydro-1H-benzo[d]imidazol-5-yl)-3-cyanobenzenesulfonamide] was 0.01 to 0.1 µM.
